# Data from patent EP4775203A1, “VANILLIC ACID DERIVATIVE COMPOUND, THERAPEUTIC AGENT COMPOSITION FOR ALZHEIMER'S DISEASE COMPRISING SAME, AND THERAPEUTIC AGENT COMPOSITION FOR NEUROINFLAMMATION” (Theranocure Co., Ltd., priority 2023, dated 2025).
# Assays:
# [1] = molecular target: T1, dopamine receptor 2 (D2R) (Mus musculus, UniProt P61168); assay: Protein-ligand interaction (CETSA); assay type: binding
# T1 construct: endogenous in cells; BV2 inferred
# Experimental: (§1) This experiment was conducted to identify the receptor targeted by VD. Dopamine receptors (D1-D5) are present on the membranes of neurons, microglia, and astrocytes. The study aimed to determine through which pathway VD exerts its anti-inflammatory effects. Since dopamine receptors are broadly classified into the D1-like and D2-like families, representative dopamine receptor 1 (D1R) and dopamine receptor 2 (D2R) were evaluated using CETSA.
# [2] = molecular target: T2, dopamine receptor 1 (D1R) (Mus musculus, UniProt Q61616); assay: Protein-ligand interaction (CETSA); assay type: binding
# T2 construct: endogenous in cells; BV2 inferred
# Experimental: as §1
# NF-κB = assay: Western blot for pNF-κB in LPS-treated cells; assay type: cell-based; conditions: LPS 1000 ng/mL, 100 µM VD
# Experimental: This experiment was conducted to evaluate how VD regulates the NF-κB pathway, which plays a critical role in inflammatory responses. NF-κB is a key transcription factor that regulates inflammatory responses, and when activated within cells, it promotes the expression of inflammatory cytokines. Therefore, inhibition of NF-κB activation may play an important role in suppressing inflammation. CREB acts upstream of the NF-κB pathway, and activation of CREB is associated with inhibition of the NF-κB pathway. Cells were treated with LPS (1000 ng/mL) to activate the NF-κB pathway and induce an inflammatory response, followed by treatment with VD at a concentration of 100 µM. A group treated with both VD and the additive (propylene glycol, PG) was also included for comparison. Western blot analysis was performed to examine the expression of pNF-κB, the activated form of NF-κB, and Lamin B was used as a control for nuclear protein quantification.
# NLRP3 = assay: Western blot of inflammatory factors in LPS-treated cells; assay type: cell-based; conditions: compared to LPS-only treated group
# Experimental: (§2) This in vitro experiment was performed to evaluate the ability of VD to suppress inflammatory responses. After extracting proteins from treated cells, the expression levels of inflammatory factors such as IL-6, iNOS, NLRP3, and TNF-α were analyzed by Western blotting. β-actin was used as an internal control for protein quantification. […] Accordingly, it may be concluded that VD affects both inflammatory and pro-inflammatory factors.
# [3] = system: dementia mouse model (5xFAD); assay: Water maze experiment (cognitive function); assay type: in vivo
# From the text: Latency to Target represents the time required to reach the target platform. As dementia progresses, cognitive function declines, leading to increased latency.
# Occupancy in Target Quadrant refers to the extent to which the mice reached or remained in the quadrant containing the target. […] Number of Target Crossings represents the number of times the mice crossed the location of the target platform.
# TNF-α = assay: Western blot of pro-inflammatory factors in LPS-treated cells; assay type: cell-based; conditions: compared to LPS-only treated group
# Experimental: as §2
# IL-6 = assay: as above; assay type: cell-based; conditions: compared to LPS-only treated group
# Experimental: as §2
# iNOS = assay: as above; assay type: cell-based; conditions: compared to LPS-only treated group
# Experimental: as §2
# CREB = assay: Western blot for CREB / pCREB in LPS-treated cells; assay type: cell-based; conditions: LPS 1000 ng/mL, 100 µM VD, with or without additive (PG)
# Experimental: This experiment was performed to evaluate how VD regulates the CREB factor, which plays an important role in inflammatory signaling pathways. CREB (cAMP response element-binding protein) is a transcription factor that regulates various intracellular signaling pathways. When activated, CREB plays an important role in suppressing the NF-κB pathway. Since NF-κB is one of the major mediators of inflammatory responses, activation of CREB is closely associated with inflammation suppression. After inducing an inflammatory response in cells by treating them with LPS (1000 ng/mL), VD was subsequently administered at concentrations of 10 µM, 50 µM, and 100 µM. A group treated with both VD and the additive (propylene glycol, PG) was also included. Western blot analysis was then performed to examine the expression levels of CREB and its activated form, pCREB. β-actin was used as an internal control for protein quantification.
# BV2 cells [4] = assay: Nitric oxide (NO) secretion analysis (Griess reagent) after LPS treatment; assay type: cell-based, mouse; conditions: LPS 2 hours, then VD 12 hours; all tested concentrations (up to 100 µM); compared to LPS-only group
# Experimental: This evaluation example was conducted to assess the effect of VD on nitric oxide (NO) secretion. Nitric oxides such as NO are inflammatory mediators that increase during inflammatory responses or infection and serve as important indicators of inflammation severity. By determining whether VD can inhibit NO secretion, the anti-inflammatory effect of VD was evaluated. After stabilizing BV2 cells, the cells were treated with LPS for 2 hours, followed by the addition of VD and incubation for 12 hours. The supernatant was collected from the cultured cells and centrifuged at 5,000 rpm for 2 minutes at 4°C. The analysis was performed using a Griess reagent kit, and the concentration of nitric oxide was calculated by measuring absorbance at 540 nm.
# BV2 cells [5] = assay: Cell viability assay (CCK-8); assay type: cell-based, mouse; conditions: VD alone
# Experimental: (§3) The cytotoxicity of the synthesized VD was evaluated through a cell viability assay. BV2 cells (normal mouse brain-derived cells) were used. The cells were cultured in a growth medium containing DMEM supplemented with 10% FBS (fetal bovine serum). The medium further contained 1% antibiotic-antimycotic solution, 1% insulin-transferrin-selenium, and 40 ng/mL dexamethasone, and the cells were incubated at 37°C in a humidified atmosphere containing 5% CO2. […] After maintaining the cells under serum-free conditions for 24 hours, subsequent incubation for 48 hours was performed using RPMI 1640 medium containing 10% FBS and […]. Thereafter, fresh complete medium containing Cell Counting Kit-8 (CCK-8) solution was added to the plate and incubated for 3 hours. Cell viability was measured by absorbance at 450 nm using a SpectraMax® i3 (Molecular Devices, CA, U.S.).
# [6] = Cell viability assay (CCK-8); assay type: cell-based, mouse; conditions: mouse, bv2 cells, VD + additive propylene glycol (PG)
# Experimental: as §3
# [7] = system: Alzheimer's disease mouse model (5xFAD); assay: Western blot of hippocampus and cerebral cortex proteins after IV treatment; assay type: in vivo
# Experimental: This evaluation example was conducted to assess the effect of VD (vanillic acid-dopamine derivative) on the expression of specific proteins when administered to a 12-month-old Alzheimer's disease mouse model (5xFAD).
# A total of 13 twelve-month-old 5xFAD mice were used in this experiment. The experiment was divided into three groups: (1) a normal wild-type group, (2) a dementia-induced group administered saline (5xFAD + saline), and (3) a dementia-induced group administered VD (5xFAD + VD). Each group received intravenous (IV) injections of the respective substance six times over a total period of 20 days. After completion of the treatment, the brains were harvested from the mice, and hippocampal tissue was isolated for further analysis. Protein expression of specific factors was evaluated using the hippocampal tissue. To extract proteins, the tissue was homogenized in RIPA buffer and centrifuged at 13,000 rpm for 15 minutes at 4°C. The supernatant was collected, and protein concentration was measured using a BCA protein assay kit. Equal amounts of protein were loaded onto 8.5% SDS-PAGE gels and transferred to an Immobilon-P membrane. The membranes were blocked with 3% bovine serum albumin (BSA) in Tris-buffered saline containing 0.05% Tween-20 (TBS-T) for 3 hours at room temperature. Thereafter, diluted primary antibodies were incubated overnight at 4°C in 3% BSA. The membranes were washed three times and then incubated with secondary antibodies for 1 hour. Western blot bands were detected using PicoEPD Western Reagent and SuperSignal™ West Femto Maximum Sensitivity Substrate, and images were captured using a chemiluminescent western imaging system. The obtained images were analyzed using ImageJ software.
# FIGS. 14 and 15 show Western blot results analyzing changes in protein expression in the hippocampus and cerebral cortex, respectively, after treatment with VD (vanillic acid-dopamine derivative). These experiments were conducted using Alzheimer's disease model mice (5xFAD), and the expression levels of various inflammatory and neurodegeneration-related proteins were compared to evaluate the effect of VD. Both FIGS. 14 and 15 were conducted in two independent sets, with the left panels showing the results of the first set and the right panels showing the results of the second set.
# This figure quantitatively evaluates the anti-inflammatory and neuroprotective effects of VD in Alzheimer's disease model mice (5xFAD). For this purpose, VD was administered to dementia model mice at two doses, 2 mg/kg and 4 mg/kg. The inflammatory and neurodegeneration-related factors analyzed in this experiment were as follows. NLRP3 is a protein complex acting as an inflammatory factor that plays an important role in regulating immune responses and inducing inflammation. BACE-1 (Beta-site Amyloid Precursor Protein Cleaving Enzyme 1) is an enzyme that cleaves amyloid precursor protein (APP) to generate β-amyloid. β-amyloid is one of the primary causative substances of Alzheimer's disease, and its accumulation is considered a key pathological feature of the disease. IBA-1 is a marker of microglial activation, indicating activation of microglia, which play a crucial role in immune and inflammatory responses in the brain. GFAP is a marker of astrocyte activation, and increased GFAP expression indicates activation of astrocytes. When astrocytes and microglia are activated, they secrete pro-inflammatory cytokines, thereby promoting inflammatory responses.
# [8] = 2 mg/kg and 4 mg/kg, IV six times over 20 days
# T2 sequence (Q61616 whole entry): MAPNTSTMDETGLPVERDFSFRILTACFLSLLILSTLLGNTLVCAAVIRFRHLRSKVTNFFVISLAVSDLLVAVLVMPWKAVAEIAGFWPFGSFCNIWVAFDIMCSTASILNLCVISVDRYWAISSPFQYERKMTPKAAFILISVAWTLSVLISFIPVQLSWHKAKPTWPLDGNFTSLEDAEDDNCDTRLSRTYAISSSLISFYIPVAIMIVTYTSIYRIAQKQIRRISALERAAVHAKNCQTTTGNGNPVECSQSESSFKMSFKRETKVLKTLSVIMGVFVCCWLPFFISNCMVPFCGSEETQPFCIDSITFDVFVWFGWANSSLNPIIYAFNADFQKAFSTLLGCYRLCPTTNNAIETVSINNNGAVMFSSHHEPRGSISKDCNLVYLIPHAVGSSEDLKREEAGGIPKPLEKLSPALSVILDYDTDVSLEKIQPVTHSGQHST
# T1 sequence (P61168 whole entry): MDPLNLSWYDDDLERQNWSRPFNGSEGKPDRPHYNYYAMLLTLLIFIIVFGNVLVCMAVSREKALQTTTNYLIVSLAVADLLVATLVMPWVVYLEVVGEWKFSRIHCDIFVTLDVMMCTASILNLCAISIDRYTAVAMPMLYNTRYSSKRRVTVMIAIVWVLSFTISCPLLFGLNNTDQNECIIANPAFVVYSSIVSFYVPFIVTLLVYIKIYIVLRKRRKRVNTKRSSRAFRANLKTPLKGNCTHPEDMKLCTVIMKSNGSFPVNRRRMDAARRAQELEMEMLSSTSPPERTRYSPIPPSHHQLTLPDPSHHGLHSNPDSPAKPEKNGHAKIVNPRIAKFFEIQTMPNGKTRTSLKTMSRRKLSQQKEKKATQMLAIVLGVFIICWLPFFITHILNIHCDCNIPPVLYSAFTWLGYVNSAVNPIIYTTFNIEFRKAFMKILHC
smiles,measurement,setting,value
COc1cc(C(=O)NCCc2ccc(O)c(O)c2)ccc1O [VD],CETSA change in D2R,[1],no significant change
same,CETSA change in D1R,[2],a change was observed
same,activation of NF-κB (pNF-κB),NF-κB,significantly reduced
same,intensity of NLRP3,NLRP3,effectively reduced
same,Latency to Target,[3]; 4 mg/kg VD-treated group,most significant improvement
same,Number of Target Crossings,[3]; 4 mg/kg group vs untreated dementia mice,notably higher
same,Number of Target Crossings,[3]; VD-treated group vs untreated dementia mice,more frequently
same,Occupancy in Target Quadrant,"[3]; VD-treated groups, particularly 4 mg/kg, vs untreated dementia mice",higher occupancy rate
same,Latency to Target,[3]; VD-treated vs untreated dementia mice,shorter
same,intensity of TNF-α,TNF-α,same pattern as NLRP3
same,intensity of IL-6,IL-6,same pattern as NLRP3
same,intensity of iNOS,iNOS,same pattern as NLRP3
same,pCREB/CREB ratio,CREB,significant increase
same,NO secretion,BV2 cells [4],lower NO secretion
same,cell viability (cytotoxicity),BV2 cells [5]; 0-100 µM,little to no cytotoxicity
same,cell viability (cytotoxicity),BV2 cells [5]; 200 µM or more,slight cytotoxicity
same,viability at 100 µM,[6]; 100 µM,84.7%
same,viability at 200 µM,[6]; 200 µM,60.1%
same,viability at 400 µM,[6]; 400 µM,43.1%
same,expression of inflammatory cytokines,[7],reduced
same,expression of phosphorylated tau,[7],reduced
same,expression of β-amyloid,[7],reduced
same,expression of BACE-1,[7]; [8],suppressed
same,expression of GFAP,[7]; [8],suppressed
same,expression of IBA-1,[7]; [8],suppressed
same,expression of NLRP3,[7]; [8],suppressed
